Experimental data published in patent US20240226228A1, “ANTIMICROBIAL PEPTOID HAVING IMPROVED SELECTIVITY AND ANTIMICROBIAL COMPOSITION COMPRISING SAME” (priority 2021, published 2024).
Converted amounts (≈) assume the structure as drawn. Like-named read-outs stand apart in the source and are kept apart here. Where a SMILES comes first, the peptide text is derived from it. [ ]: non-standard residue; d: D form. Gly(N(CH2)2(3-indolyl)) = O=C(O)CNCCc1c[nH]c2ccccc12; Gly(N-CH2CH2-imidazol-4-yl) = O=C(O)CNCCc1c[nH]cn1; Nspe = C[C@H](NCC(=O)O)c1ccccc1; Nphe = O=C(O)CNCc1ccccc1; Nlys = NCCCCNCC(=O)O

Key:
E. coli ATCC25922 = test system: E. coli ATCC25922
Description: (§1) To measure the antimicrobial activity of the peptoids synthesized in Example 1, an E. coli ATCC25922 strain as gram-negative bacteria and an S. aureus KCTC25923 strain as gram-positive bacteris, were treated with the peptoids, followed by measuring the minimum inhibitory concentration (MIC). Peptoids 1 and 2 are antimicrobial peptoids known in the art, and used as controls for comparing antimicrobial activity with a novel peptoid.
(§2) Specifically, the S. aureus KCTC25923 or E. coli ATCC25922 strain was inoculated into a Mueller Hinton Broth (MHB2) liquid medium in which cations had been adjusted in the medium, cultured at 37° C. for 18 hours, subcultured, and then incubated for 4 hours. Afterward, for each bacterial strain, an optical density (OD, 0.001) was adjusted so that the bacterial count became 2×10^5 to 5×10^5 colony-forming units (CFU) per mL, which was then diluted with a MHB2 liquid medium containing 0.02% bovine serum albumin and 0.001% acetic acid, and dispensed at 100 μL into a 96-well microplate. Using sterile water, a peptoid stock 40 times stronger than a concentration to be tested was subjected to two-fold serial dilution and assessed at six different concentrations, and the maximum value of the peptoid concentrations was 25 μM. Subsequently, the plate was incubated at 37° C. for 24 hours. Afterward, optical density (OD) values at 600 nm were measured using a microplate reader (Bio-Rad).
(§3) Each MIC value was determined as the average value of a value obtained through three independent experiments.
(§4) Referring to Table 22, to measure the antimicrobial activity of the peptoids synthesized in Example 3, an MIC was measured by treating gram-negative bacteria, that is, the E. coli ATCC25922 strain, and gram-positive bacteria, that is, the S. aureus ATCC25923 strain, with the peptoids. Here, Peptoid 1 is a conventionally known antimicrobial peptoid, and Omiganan is a derivative of indolicidin, which is an antimicrobial peptide, under clinical development, and was used as a control for comparing antimicrobial activity with the novel peptoid.

S. aureus ATCC 25923 = test system: S. aureus ATCC 25923
Description: as §1, §2, §3, §4

red blood cells = assay: Hemolysis assay; format: cell-based, Sprague-Dawley mouse
Summary of the method: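 Peptoid is mixed with 10% (v/v) PBS-washed erythrocytes (male Sprague-Dawley […], 13 weeks) and held 1 h at 37 °C. Hemolysis is calculated from 540 nm absorbance of the supernatant, with PBS as 0% and Triton X-100 as 100%.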

[1] = Tables 11-13, 24 hours at 37° C., maximum concentration 25 μM
[2] = Table 18, TFA salt vs counter ion-substituted (HCl, AcOH) peptoids

SMILES | MIC E. coli ATCC25922 (E. coli ATCC25922; [1]) | MIC S. aureus ATCC 25923 (S. aureus ATCC 25923; [1]) | HC10 (red blood cells) | HC50 (red blood cells) | Hmax (100 μM) (red blood cells) | MIC E. coli ATCC25922 (E. coli ATCC25922; [2]) | MIC S. aureus ATCC 25923 (S. aureus ATCC 25923; [2]) | MIC E. coli ATCC25922 (E. coli ATCC25922; ATCC25922) | MIC S. aureus ATCC 25923 (S. aureus ATCC 25923; ATCC 25923)
NCCCCNCC(=O)N(CC(=O)N(CC(=O)N(CCCCN)CC(=O)N(CC(=O)N(CC(=O)N(CCCCN)CC(=O)N(CC(=O)N(CC(=O)N(CCCCN)CC(=O)N(CC(=O)N(CC(N)=O)Cc1ccccc1)Cc1ccccc1)Cc1ccccc1)Cc1ccccc1)Cc1ccccc1)Cc1ccccc1)Cc1ccccc1)Cc1ccccc1 [Peptoid 2] (H-[Nlys][Nphe][Nphe][Nlys][Nphe][Nphe][Nlys][Nphe][Nphe][Nlys][Nphe][Nphe]-NH2) | 12.5 µM (≈ 21.3 µg/mL) | 3.1 µM (≈ 5.29 µg/mL) | 20.4 µM | > 100.0 µM | 17.7 ± 1.1% | – | – | – | –
C[C@@H](c1ccccc1)N(CC(=O)N(CCc1c[nH]c2ccccc12)CC(N)=O)C(=O)CN(CCCCN)C(=O)CN(C(=O)CN(C(=O)CN(CCCCN)C(=O)CN(C(=O)CN(C(=O)CN(CCCCN)C(=O)CN(C(=O)CN(C(=O)CNCCCCN)[C@@H](C)c1ccccc1)[C@@H](C)c1ccccc1)[C@@H](C)c1ccccc1)[C@@H](C)c1ccccc1)[C@@H](C)c1ccccc1)[C@@H](C)c1ccccc1 [Peptoid 7] (H-[Nlys][Nspe][Nspe][Nlys][Nspe][Nspe][Nlys][Nspe][Nspe][Nlys][Nspe][Gly(N(CH2)2(3-indolyl))]-NH2) | 6.3 µM (≈ 11.7 µg/mL) | 3.1 µM (≈ 5.76 µg/mL) | 7.8 µM | 23.8 µM | 94.1 ± 4.3% | – | – | – | –
C[C@@H](c1ccccc1)N(CC(N)=O)C(=O)CN(C(=O)CN(CCCCN)C(=O)CN(C(=O)CN(C(=O)CN(CCCCN)C(=O)CN(CCc1c[nH]c2ccccc12)C(=O)CN(C(=O)CN(CCCCN)C(=O)CN(C(=O)CN(C(=O)CNCCCCN)[C@@H](C)c1ccccc1)[C@@H](C)c1ccccc1)[C@@H](C)c1ccccc1)[C@@H](C)c1ccccc1)[C@@H](C)c1ccccc1)[C@@H](C)c1ccccc1 [Peptoid 9] | 3.1 µM (≈ 5.76 µg/mL) | 1.6 µM (≈ 2.97 µg/mL) | 10.6 µM | 31.9 µM | 106.4 ± 0.6% | – | – | – | –
C[C@@H](c1ccccc1)N(CC(N)=O)C(=O)CN(C(=O)CN(CCCCN)C(=O)CN(C(=O)CN(C(=O)CN(CCCCN)C(=O)CN(C(=O)CN(C(=O)CN(CCCCN)C(=O)CN(CCc1c[nH]c2ccccc12)C(=O)CN(C(=O)CNCCCCN)[C@@H](C)c1ccccc1)[C@@H](C)c1ccccc1)[C@@H](C)c1ccccc1)[C@@H](C)c1ccccc1)[C@@H](C)c1ccccc1)[C@@H](C)c1ccccc1 [Peptoid 10-1] | – | – | 15.3 µM | 37.8 µM | 81.5 ± 7.4% | 6.3 µM | 3.1 µM | – | –
C[C@@H](c1ccccc1)N(CC(N)=O)C(=O)CN(C(=O)CN(CCCCN)C(=O)CN(C(=O)CN(C(=O)CN(CCCCN)C(=O)CN(C(=O)CN(C(=O)CN(CCCCN)C(=O)CN(CCc1c[nH]c2ccccc12)C(=O)CN(C(=O)CNCCCCN)[C@@H](C)c1ccccc1)[C@@H](C)c1ccccc1)[C@@H](C)c1ccccc1)[C@@H](C)c1ccccc1)[C@@H](C)c1ccccc1)[C@@H](C)c1ccccc1 [Peptoid 10-2] | – | – | 14.1 µM | 29.4 µM | 102.3 ± 11.3% | 6.3 µM | 1.6 µM | – | –
C[C@@H](c1ccccc1)N(CC(=O)N(CCCCN)CC(=O)N(CC(=O)N(CC(=O)N(CCCCN)CC(=O)N(CC(=O)N(CC(=O)N(CCCCN)CC(=O)N(CCc1c[nH]c2ccccc12)CC(=O)N(CCc1c[nH]c2ccccc12)CC(N)=O)[C@@H](C)c1ccccc1)[C@@H](C)c1ccccc1)[C@@H](C)c1ccccc1)[C@@H](C)c1ccccc1)C(=O)CN(C(=O)CNCCCCN)[C@@H](C)c1ccccc1 [Peptoid 11-1] (H-[Nlys][Nspe][Nspe][Nlys][Nspe][Nspe][Nlys][Nspe][Nspe][Nlys][Gly(N(CH2)2(3-indolyl))][Gly(N(CH2)2(3-indolyl))]-NH2) | – | – | 10.1 µM | 21.5 µM | 113.9 ± 1.7% | 3.1 µM | 3.1 µM | – | –
C[C@@H](c1ccccc1)N(CC(=O)N(CCCCN)CC(=O)N(CC(=O)N(CC(=O)N(CCCCN)CC(=O)N(CC(=O)N(CC(=O)N(CCCCN)CC(=O)N(CCc1c[nH]c2ccccc12)CC(=O)N(CCc1c[nH]c2ccccc12)CC(N)=O)[C@@H](C)c1ccccc1)[C@@H](C)c1ccccc1)[C@@H](C)c1ccccc1)[C@@H](C)c1ccccc1)C(=O)CN(C(=O)CNCCCCN)[C@@H](C)c1ccccc1 [Peptoid 11-2] (H-[Nlys][Nspe][Nspe][Nlys][Nspe][Nspe][Nlys][Nspe][Nspe][Nlys][Gly(N(CH2)2(3-indolyl))][Gly(N(CH2)2(3-indolyl))]-NH2) | – | – | 8.7 µM | 29.7 µM | 110.4 ± 0.2% | 3.1 µM | 1.6 µM | – | –
C[C@@H](c1ccccc1)N(CC(N)=O)C(=O)CN(C(=O)CN(CCCCN)C(=O)CN(CCc1c[nH]c2ccccc12)C(=O)CN(CCc1c[nH]c2ccccc12)C(=O)CN(CCCCN)C(=O)CN(C(=O)CN(C(=O)CN(CCCCN)C(=O)CN(C(=O)CN(C(=O)CNCCCCN)[C@@H](C)c1ccccc1)[C@@H](C)c1ccccc1)[C@@H](C)c1ccccc1)[C@@H](C)c1ccccc1)[C@@H](C)c1ccccc1 [Peptoid 12] | 6.3 µM (≈ 12 µg/mL) | 1.6 µM (≈ 3.04 µg/mL) | 29.1 µM | 65.2 µM | 87.4 ± 2.4% | – | – | – | –
C[C@@H](c1ccccc1)N(CC(N)=O)C(=O)CN(C(=O)CN(CCCCN)C(=O)CN(C(=O)CN(C(=O)CN(CCCCN)C(=O)CN(CCc1c[nH]c2ccccc12)C(=O)CN(CCc1c[nH]c2ccccc12)C(=O)CN(CCCCN)C(=O)CN(C(=O)CN(C(=O)CNCCCCN)[C@@H](C)c1ccccc1)[C@@H](C)c1ccccc1)[C@@H](C)c1ccccc1)[C@@H](C)c1ccccc1)[C@@H](C)c1ccccc1 [Peptoid 13] | 6.3 µM (≈ 12 µg/mL) | <0.8 µM | 20.2 µM | 41.3 µM | 96.8 ± 1.6% | – | – | – | –
C[C@@H](c1ccccc1)N(CC(N)=O)C(=O)CN(C(=O)CN(CCCCN)C(=O)CN(C(=O)CN(C(=O)CN(CCCCN)C(=O)CN(C(=O)CN(C(=O)CN(CCCCN)C(=O)CN(CCc1c[nH]c2ccccc12)C(=O)CN(CCc1c[nH]c2ccccc12)C(=O)CNCCCCN)[C@@H](C)c1ccccc1)[C@@H](C)c1ccccc1)[C@@H](C)c1ccccc1)[C@@H](C)c1ccccc1)[C@@H](C)c1ccccc1 [Peptoid 14-1] | – | – | 19.2 µM | 68.2 µM | 75.3 ± 5.0% | 3.1 µM | 3.1 µM | – | –
C[C@@H](c1ccccc1)N(CC(N)=O)C(=O)CN(CCCCN)C(=O)CN(CCCCN)C(=O)CN(C(=O)CN(CCc1c[nH]cn1)C(=O)CN(CCCCN)C(=O)CN(C(=O)CN(C(=O)CN(CCCCN)C(=O)CN(CCc1c[nH]c2ccccc12)C(=O)CN(CCc1c[nH]c2ccccc12)C(=O)CNCCCCN)[C@@H](C)c1ccccc1)[C@@H](C)c1ccccc1)[C@@H](C)c1ccccc1 [Peptoid 69] (H-[Nlys][Gly(N(CH2)2(3-indolyl))][Gly(N(CH2)2(3-indolyl))][Nlys][Nspe][Nspe][Nlys][Gly(N-CH2CH2-imidazol-4-yl)][Nspe][Nlys][Nlys][Nspe]-NH2) | – | – | – | – | – | – | – | 25 µM (≈ 46.4 µg/mL) | 25 µM (≈ 46.4 µg/mL)
C[C@@H](c1ccccc1)N(CC(N)=O)C(=O)CN(CCCCN)C(=O)CN(CCCCN)C(=O)CN(CCc1c[nH]cn1)C(=O)CN(C(=O)CN(CCCCN)C(=O)CN(C(=O)CN(C(=O)CN(CCCCN)C(=O)CN(CCc1c[nH]c2ccccc12)C(=O)CN(CCc1c[nH]c2ccccc12)C(=O)CNCCCCN)[C@@H](C)c1ccccc1)[C@@H](C)c1ccccc1)[C@@H](C)c1ccccc1 [Peptoid 70] (H-[Nlys][Gly(N(CH2)2(3-indolyl))][Gly(N(CH2)2(3-indolyl))][Nlys][Nspe][Nspe][Nlys][Nspe][Gly(N-CH2CH2-imidazol-4-yl)][Nlys][Nlys][Nspe]-NH2) | – | – | – | – | – | – | – | >25 µM | >25 µM
C[C@@H](c1ccccc1)N(CC(=O)N(CCCCN)CC(=O)N(CC(=O)N(CC(=O)N(CCCCN)CC(=O)N(CCCCN)CC(=O)N(CCc1c[nH]cn1)CC(N)=O)[C@@H](C)c1ccccc1)[C@@H](C)c1ccccc1)C(=O)CN(C(=O)CN(CCCCN)C(=O)CN(CCc1c[nH]c2ccccc12)C(=O)CN(CCc1c[nH]c2ccccc12)C(=O)CNCCCCN)[C@@H](C)c1ccccc1 [Peptoid 71] (H-[Nlys][Gly(N(CH2)2(3-indolyl))][Gly(N(CH2)2(3-indolyl))][Nlys][Nspe][Nspe][Nlys][Nspe][Nspe][Nlys][Nlys][Gly(N-CH2CH2-imidazol-4-yl)]-NH2) | – | – | – | – | – | – | – | >25 µM | >25 µM
